Data: PubChem BioAssay (NCI)
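In this assay, cells in 96-well plates receive the compound at five concentrations for 48 hours. Endpoints are linearly interpolated between the surrounding concentrations. GI50 = concentration required for 50% inhibition of growth. TGI denotes the concentration required for complete inhibition of growth.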

What was measured:
Assay in all cases: NCI tumour cell line growth inhibition, 48 h
[1] = tested on: OVCAR-8 ovarian
[2] = tested on: MDA-MB-468 breast
[3] = tested on: EKVX NSCLC
[4] = tested on: SK-MEL-5 melanoma
[5] = tested on: OVCAR-4 ovarian
[6] = tested on: KM12 colon
[7] = tested on: HT29 colon
[8] = tested on: UACC-62 melanoma
[9] = tested on: MCF7 breast
[10] = tested on: SK-MEL-28 melanoma
[11] = tested on: SK-OV-3 ovarian
[12] = tested on: UACC-257 melanoma
[13] = tested on: MOLT-4 leukemia
[14] = tested on: SW-620 colon
[15] = tested on: PC-3 prostate
[16] = tested on: M14 melanoma
[17] = tested on: MDA-MB-435
[18] = tested on: SNB-75 CNS
[19] = tested on: HOP-62 NSCLC
[20] = tested on: CCRF-CEM leukemia
[21] = tested on: MALME-3M melanoma
[22] = tested on: COLO 205 colon
[23] = tested on: CAKI-1 renal
[24] = tested on: SF-268 CNS
[25] = tested on: RPMI-8226 leukemia
[26] = tested on: 786-0 renal
[27] = tested on: BT-549 breast
[28] = tested on: U251 CNS
[29] = tested on: SF-295 CNS
[30] = tested on: ACHN renal

## O=C1CCC(N2Cc3cc(CC(=O)Nc4ccc(N5CCCCC5)cc4)ccc3C2=O)C(=O)N1 (configuration not stated)
[1]
  TGI: > 100 µM
[2]
  GI50: < 0.01 µM
  TGI: < 0.0282 µM
[3]
  GI50: > 34.5 µM
  TGI: > 100 µM
[4]
  GI50: 1.76 µM
  TGI: > 100 µM
[5]
  GI50: 23.4 µM
  TGI: > 100 µM
[6]
  GI50: 2.37 µM
  TGI: > 100 µM
[7]
  GI50: 19 µM
  TGI: > 100 µM
[8]
  GI50: 36.3 µM
  TGI: > 100 µM
[9]
  GI50: 12.4 µM
  TGI: > 100 µM
[10]
  GI50: > 60.4 µM
  TGI: > 100 µM
[11]
  GI50: 12.9 µM
  TGI: > 100 µM
[12]
  GI50: > 100 µM
  TGI: > 100 µM
[13]
  GI50: < 0.01 µM
  TGI: > 100 µM
[14]
  GI50: < 0.0144 µM
  TGI: > 100 µM
[15]
  GI50: < 0.0108 µM
  TGI: > 100 µM
[16]
  GI50: 0.432 µM
  TGI: > 100 µM
[17]
  GI50: > 100 µM
  TGI: > 100 µM
[18]
  GI50: 0.0288 µM
  TGI: 99.2 µM
[19]
  GI50: < 0.01 µM
[20]
  GI50: < 0.01 µM
[21]
  GI50: < 0.01 µM
  TGI: 0.0124 µM
[22]
  GI50: 0.0118 µM
  TGI: > 100 µM
[23]
  GI50: 2.06 µM
  TGI: > 100 µM
[24]
  GI50: 40.7 µM
  TGI: > 100 µM
[25]
  GI50: 20.1 µM
  TGI: > 100 µM
[26]
  GI50: 1.43 µM
  TGI: > 100 µM
[27]
  GI50: < 0.01 µM
  TGI: 0.927 µM
[28]
  GI50: 46.8 µM
  TGI: > 100 µM
[29]
  GI50: > 96.3 µM
  TGI: > 100 µM
[30]
  GI50: > 100 µM
  TGI: > 100 µM
